Active and inactive are the calls of the source. The calls are words filed in the database; no cut-off is given here.
How the values were obtained:
[1] = system: HUVEC; assay: Cytotoxicity against HUVEC assessed as reduction in cell viability after 72 hrs by MTT assay; assay type: cell-based; conditions: Homo sapiens
[2] = system: KB; conditions: Homo sapiens, 10 nM
Description: Inhibition of colony formation in human KB cells at 10 nM after 10 to 14 days by methylene blue staining based assay

[3] = system: SW-620; assay: Antiproliferative activity against human SW620 cells assessed as reduction in cell viability after 72 hrs by MTT assay; assay type: functional, cell-based; conditions: SW-620, 72 h
[4] = molecular target: T1, Dihydrofolate reductase (Homo sapiens, UniProt P00374); assay: Inhibition of recombinant human DHFR using dihydrofolic acid as substrate in presence of NADPH after 15 mins by microplate reader analysis
T1 sequence (P00374 whole entry): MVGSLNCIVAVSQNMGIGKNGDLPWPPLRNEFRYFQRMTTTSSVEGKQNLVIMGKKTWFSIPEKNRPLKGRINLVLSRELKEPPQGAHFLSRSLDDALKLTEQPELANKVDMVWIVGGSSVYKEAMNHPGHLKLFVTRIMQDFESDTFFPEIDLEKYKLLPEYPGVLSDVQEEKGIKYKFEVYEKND

[5] = system: A549; assay: cells; conditions: Homo sapiens, A549, 72 h
Description: Antiproliferative activity against human A549 cells assessed as reduction in cell viability after 72 hrs by MTT assay

[6] = system: KB; assay: Inhibition of colony formation in human KB cells at 100 nM after 10 to 14 days by methylene blue staining based assay; assay type: functional, cell-based
[7] = system: KB; assay: Antiproliferative activity against human KB cells assessed as reduction in cell viability after 72 hrs by MTT assay; assay type: functional, cell-based
[8] = system: KB; assay: Antiproliferative activity against human KB cells at 0.01 to 1 uM in presence of adenosine; assay type: functional, cell-based
[9] = system: KB; assay: Cell cycle arrest in human KB cells assessed as accumulation at S phase at 10 uM after 96 hrs by RNase-1 A/propidium iodide staining-based flow cytometric analysis (reference value: 48.26%); assay type: functional
[10] = system: KB; assay: Cell cycle arrest in human KB cells assessed as accumulation at G1 phase at 10 uM after 96 hrs by RNase-1 A/propidium iodide staining-based flow cytometric analysis (reference value: 42.69%); assay type: functional
[11] = system: KB; assay: Antiproliferative activity against human KB cells at 0.01 to 1 uM in presence of thymidine; assay type: functional, cell-based
[12] = system: KB; assay: Antiproliferative activity against human KB cells at 0.01 to 1 uM in presence of AICA; assay type: functional, cell-based
[13] = Selectivity index, ratio of IC50 for HUVEC to IC50 for human KB cells; assay type: toxicity; conditions: HUVEC and KB cells, read-out: Ratio IC50
[14] = system: KB; assay: Cell cycle arrest in human KB cells assessed as accumulation at G2 phase at 10 uM after 96 hrs by RNase-1 A/propidium iodide staining-based flow cytometric analysis (reference value: 9.06%); assay type: functional
[15] = system: A549; assay: Potency index, ratio of IC50 for methotrexate to IC50 for test compound for antiproliferative activity against human A549 cells after 72 hrs by MTT assay; assay type: functional
[16] = system: KB; assay: Potency index, ratio of IC50 for pemetrexed to IC50 for test compound for antiproliferative activity against human KB cells after 72 hrs by MTT assay; assay type: functional
[17] = system: A549; assay: Potency index, ratio of IC50 for pemetrexed to IC50 for test compound for antiproliferative activity against human A549 cells after 72 hrs by MTT assay; assay type: functional
[18] = system: SW-620; assay: Potency index, ratio of IC50 for pemetrexed to IC50 for test compound for antiproliferative activity against human SW620 cells after 72 hrs by MTT assay; assay type: functional
[19] = system: KB; assay: Inhibition of colony formation in human KB cells at 100 nM after 10 to 14 days by methylene blue staining based assay relative to untreated control; assay type: functional
[20] = system: KB; assay: Antiproliferative activity against human KB cells in presence of AICA and thymidine; assay type: functional, cell-based
[21] = system: KB; assay: Antiproliferative activity against human KB cells in presence of thymidine; assay type: functional, cell-based
[22] = system: KB; assay: Antiproliferative activity against human KB cells in presence of adenosine; assay type: functional, cell-based
[23] = system: KB; assay: Antiproliferative activity against human KB cells in presence of AICA; assay type: functional, cell-based
[24] = molecular target: T2, Dihydrofolate reductase (Homo sapiens) (UniProt P00374); assay: Potency index, ratio of IC50 for methotrexate to test compound IC50 for inhibition of recombinant human DHFR
T2 sequence (whole entry): T1 sequence (P00374 whole entry)

Row | IC50 [3] [nM] | IC50 [4] [nM] | IC50 [5] [nM] | IC50 [7] [nM] | SMILES | IC50 [1] [µM] | inhibition [6] | Activity [9] [%] | Activity [10] [%] | Activity [14] [%] | also measured
1 | ≥ 1000 | ≥ 1000 | ≥ 1000 | 56.5 | Nc1nc2[nH]c(CCNC(=O)c3ccccc3C(=O)NCc3cccnc3)cc2c(=O)[nH]1 | – | Active | – | – | – | –
2 | ≥ 1000 | ≥ 1000 | ≥ 1000 | 89.9 | Nc1nc2[nH]c(CCNC(=O)c3ccccc3C(=O)NCc3ccncc3)cc2c(=O)[nH]1 | – | Active | – | – | – | –
3 | ≥ 1000 | ≥ 1000 | ≥ 1000 | 90.5 | Nc1nc2[nH]c(CCNC(=O)c3ccccc3C(=O)NCc3ccccn3)cc2c(=O)[nH]1 | – | Active | – | – | – | –
4 | 15 | 49 | 12.1 | 10.2 | Nc1nc2[nH]c(CCNC(=O)c3ccc(C(=O)NCc4ccncc4)cc3)cc2c(=O)[nH]1 | 8.83 | – | 33.74 | 56.59 | 9.66 | Activity [8]: Active; Ratio IC50 [15]: 81; Ratio IC50 [16]: 7; Ratio IC50 [17]: 104; Activity [11]: Active; Activity [12]: Active; Ratio IC50 [18]: 7; selectivity ratio [13]: 867; inhibition at 0.1 µM [19]: 80%
5 | 60.1 | 65.9 | ≥ 1000 | 25 | Nc1nc2[nH]c(CCNC(=O)c3cccc(C(=O)NCc4ccncc4)c3)cc2c(=O)[nH]1 | – | Active | – | – | – | –
6 | 154 | 53.4 | ≥ 1000 | 88.8 | Nc1nc2[nH]c(CCNC(=O)c3cccc(C(=O)NCc4cccnc4)c3)cc2c(=O)[nH]1 | – | Active | – | – | – | –

The remaining lines, values behind:

Row | SMILES | IC50 [3] [nM] | IC50 [4] [nM] | IC50 [5] [nM] | IC50 [7] [nM] | IC50 [1] [µM] | inhibition [6] | Activity [9] [%] | Activity [10] [%] | Activity [14] [%] | also measured
7 | CN(Cc1cnc2nc(N)nc(N)c2n1)c1ccc(C(=O)N[C@@H](CCC(=O)O)C(=O)O)cc1 [METHOTREXATE] | 13.1 | – | – | – | 6.13 | – | – | – | – | inhibition [2]: Active
8 | Nc1nc2[nH]c(CCNC(=O)c3ccc(C(=O)NCc4cccnc4)cc3)cc2c(=O)[nH]1 | 13.1 | 37.9 | 12.4 | 11.2 | 2.97 | Active | 55.36 | 38.38 | 6.26 | Activity [8]: Active; Activity [11]: Active; Activity [12]: Active; selectivity ratio [13]: 265
9 | Nc1nc2[nH]c(CCNC(=O)c3ccc(C(=O)NCc4ccccn4)cc3)cc2c(=O)[nH]1 | 15.2 | 29.3 | 18.9 | 23 | 5.93 | Active | 24.75 | 65.92 | 9.33 | Activity [8]: Active; Activity [11]: Active; Activity [12]: Active; selectivity ratio [13]: 257
10 | Nc1nc2[nH]cc(CCc3ccc(C(=O)N[C@@H](CCC(=O)O)C(=O)O)cc3)c2c(=O)[nH]1 [PEMETREXED] | 80.2 | – | – | – | 1.73 | Active | 27.89 | 72.11 | 0 | Activity [20]: inactive; Activity [21]: inactive; Activity [22]: inactive; Activity [23]: inactive
11 | Nc1nc2[nH]c(CCNC(=O)c3cccc(C(=O)NCc4ccccn4)c3)cc2c(=O)[nH]1 | ≥ 1000 | 9.28 | ≥ 1000 | 102 | – | Active | – | – | – | Ratio IC50 [24]: 2.6
